Drawing on patent US10195185B2, “3-(1H-imidazo[4,5-C]pyridin-2-yl)-1H-pyrazolo[4,3-B]pyridines and therapeutic uses thereof” (Samumed, LLC, priority 2015, dated 2019), this text covers EC50 and inhibition for 18 compounds.

Holding throughout (assay type): cell-based
Test [1] relates to Wnt activity (Wnt-responsive human Sp5 promoter, TCF/LEF binding sites) in SW480 colon carcinoma cells. Briefly: Wnt activity screening assay: Sp5-Luc luciferase reporter gene in SW480 cells. The note with it: for pEC50: 10-point dose-response from 10 μM, incubated overnight; for inhibition at 10 µM: given for EC50 of >10 μM, read-out: percent inhibition at 10 μM. The gist of the method:
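SW480 cells stably transduced with an Sp5 promoter (eight TCF/LEF sites)–firefly luciferase lentiviral reporter, plated at 4,000 cells/well in 1% FBS medium with compounds (10-point 1:3 series from 10 μM, 0.1% DMSO) overnight at 37 °C. BrightGlo luminescence normalised to DMSO; EC50 by four-parameter fit, else % inhibition at 10 μM.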
(Reporter assays use an easily measured gene product as a stand-in for the process of interest.)

A further test has as its system SW480 colon cancer cells. Briefly: Cell viability assay (CellTiter-Blue), four days. To be noted: Homo sapiens, 96 h; for inhibition at 10 µM: read-out: percent inhibition at 10 μM (given for EC50 of >10 μM); for pEC50: CellTiter-Blue cell viability. The method in brief:
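Approximately 2×10^3 SW480 cells per well are seeded with compound (8 points, threefold steps, top 10 μM) and incubated four days at 37 °C. CellTiter-Blue is then added for about 3 h and fluorescence read. Non-linear regression gives EC50; for values beyond 10 μM, percent inhibition at that concentration is listed.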
(In general: Resazurin is reduced to fluorescent resorufin, in cell work by metabolically active cells.)

Test [2] relates to Primary human fibroblasts derived from IPF patients (LL29 cells) treated with TGF-β1. Briefly: Inhibition of the fibrotic process: αSMA staining in TGF-β1 treated fibroblasts. The note with it: Fibroblast, 96 h, LL29 fibroblasts treated with TGF-β1, 4 days; for inhibition at 10 µM: read-out: percent inhibition in brackets beside EC50 >10 μM. The method in brief: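 Compound dilutions from 10 μM down to […] are dispensed, LL29 cells added in F12 with 1% FBS, and TGF-β1 (20 ng/mL) follows after 1 h. After 4 days, live-cell αSMA positivity is measured by immunofluorescence and normalized to TGF-β1-treated wells to derive EC50.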

pEC50: −log10 of the molar value.

Consider `CS(=O)(=O)NCc1cc(F)cc(-c2nccc3[nH]c(-c4n[nH]c5ccc(-c6cncnc6)nc45)nc23)c1` [Compound 503, N-(3-Fluoro-5-(2-(5-(pyrimidin-5-yl)-1H-pyrazolo[4,3-b]pyridin-3-yl)-1H-imidazo[4,5-c]pyridin-4-yl)benzyl)methanesulfonamide], for which the pEC50 (in test [1]; in the test with SW480 colon cancer cells; in test [2]) was less than 5.00 each time. Besides, the inhibition (in general, the change of the read-out against control, counted positive when it falls) at 10 µM in test [1] was 18.7%; with SW480 colon cancer cells, 0.8%; in test [2], 0%.

Regarding `Fc1cccc(-c2nccc3[nH]c(-c4n[nH]c5ccc(C6CCNCC6)nc45)nc23)c1` [Compound 505, 3-(4-(3-Fluorophenyl)-1H-imidazo[4,5-c]pyridin-2-yl)-5-(piperidin-4-yl)-1H-pyrazolo[4,3-b]pyridine], the pEC50 – broadly, the negative decadic logarithm of the EC50, by convention in mol/L – in test [1] was less than 5.00; in the test on SW480 colon cancer cells, less than 5.00; in test [2], 5.42. The inhibition at 10 µM in test [1] is 11.9%; with SW480 colon cancer cells, 0.4%.

Turning to `Fc1cccc(-c2nccc3[nH]c(-c4n[nH]c5ccc(C6=CCNCC6)nc45)nc23)c1` [Compound 506, 3-(4-(3-Fluorophenyl)-1H-imidazo[4,5-c]pyridin-2-yl)-5-(1,2,3,6-tetrahydropyridin-4-yl)-1H-pyrazolo[4,3-b]pyridine], the pEC50 in test [1] was less than 5.00; with SW480 colon cancer cells, less than 5.00; in test [2], 5.93. The figures for the inhibition at 10 µM (in test [1]; with SW480 colon cancer cells) were 17.6% and 0%, respectively.

Regarding `Fc1cccc(-c2nccc3[nH]c(-c4n[nH]c5ccc(-c6cn[nH]c6)nc45)nc23)c1` [Compound 507, 3-(4-(3-Fluorophenyl)-1H-imidazo[4,5-c]pyridin-2-yl)-5-(1H-pyrazol-4-yl)-1H-pyrazolo[4,3-b]pyridine], the pEC50 (in test [1]; with SW480 colon cancer cells; in test [2]) was less than 5.00 throughout. In addition, the inhibition at 10 µM in test [1] was 15%; in test [2], 9.9%.

Regarding `Cn1cc(-c2ccc3[nH]nc(-c4nc5c(-c6cccc(F)c6)nccc5[nH]4)c3n2)cn1` [Compound 508, 3-(4-(3-Fluorophenyl)-1H-imidazo[4,5-c]pyridin-2-yl)-5-(1-methyl-1H-pyrazol-4-yl)-1H-pyrazolo[4,3-b]pyridine], the pEC50 was 6.94 in test [1], 5.66 with SW480 colon cancer cells and 6.97 in test [2].

With `NC1CN(c2cncc(-c3ccc4[nH]nc(-c5nc6c(-c7cccc(F)c7)nccc6[nH]5)c4n3)n2)C1` [Compound 510, 1-(6-(3-(4-(3-Fluorophenyl)-1H-imidazo[4,5-c]pyridin-2-yl)-1H-pyrazolo [4,3-b]pyridin-5-yl)pyrazin-2-yl)azetidin-3-amine], the pEC50 was less than 5.00 in test [1], 5.03 in the test with SW480 colon cancer cells and less than 5.00 in test [2]. In addition, the inhibition at 10 µM was determined as 16.3% in test [1] and 10.3% in test [2].

With `Fc1cccc(-c2nccc3[nH]c(-c4n[nH]c5ccc(-c6cncc(OCCN7CCCC7)c6)nc45)nc23)c1` [Compound 514, 3-(4-(3-Fluorophenyl)-1H-imidazo[4,5-c]pyridin-2-yl)-5-(5-(2-(pyrrolidin-1-yl)ethoxy)pyridin-3-yl)-1H-pyrazolo[4,3-b]pyridine], the figures for the pEC50 (in test [1]; in the test on SW480 colon cancer cells; in test [2]) were 5.61, 5.46 and 5.75, respectively.

Regarding `CN(C)CCOc1cncc(-c2ccc3[nH]nc(-c4nc5c(-c6cccc(F)c6)nccc5[nH]4)c3n2)c1` [Compound 515, 2-((5-(3-(4-(3-Fluorophenyl)-1H-imidazo[4,5-c]pyridin-2-yl)-1H-pyrazolo [4,3-b]pyridin-5-yl)pyridin-3-yl)oxy)-N,N-dimethylethan-1-amine], the pEC50 was 5.46 in test [1], 5.79 with SW480 colon cancer cells and 6.06 in test [2].

Consider `COc1cncc(-c2ccc3[nH]nc(-c4nc5c(-c6cccc(F)c6)nccc5[nH]4)c3n2)c1` [Compound 516, 3-(4-(3-Fluorophenyl)-1H-imidazo[4,5-c]pyridin-2-yl)-5-(5-methoxypyridin-3-yl)-1H-pyrazolo[4,3-b]pyridine], for which the pEC50 in test [1] was 5.89; in the test on SW480 colon cancer cells, 6.49; in test [2], 7.03.

In the case of `Oc1cncc(-c2ccc3[nH]nc(-c4nc5c(-c6cccc(F)c6)nccc5[nH]4)c3n2)c1` [Compound 517, 5-(3-(4-(3-Fluorophenyl)-1H-imidazo[4,5-c]pyridin-2-yl)-1H-pyrazolo[4,3-b]pyridin-5-yl)pyridin-3-ol], the pEC50 in test [1] was 6.28; with SW480 colon cancer cells, less than 5.00; in test [2] it was 5.81. Moreover, the inhibition at 10 µM with SW480 colon cancer cells is 3.5%.

With `Fc1cccc(-c2nccc3[nH]c(-c4n[nH]c5ccc(-c6cnccn6)nc45)nc23)c1` [Compound 520, 3-(4-(3-Fluorophenyl)-1H-imidazo[4,5-c]pyridin-2-yl)-5-(pyrazin-2-yl)-1H-pyrazolo[4,3-b]pyridine], the pEC50 (in test [1]; with SW480 colon cancer cells; in test [2]) was less than 5.00 each time. Further, the inhibition at 10 µM in test [1] worked out at 12.2%; in the test on SW480 colon cancer cells, 6.6%; in test [2] it was 2.4%.

As to `c1cncc(-c2nccc3[nH]c(-c4n[nH]c5ccc(-c6cncc(OC7CCCCC7)c6)nc45)nc23)c1` [Compound 559, 5-(5-(Cyclohexyloxy)pyridin-3-yl)-3-(4-(pyridin-3-yl)-1H-imidazo[4,5-c]pyridin-2-yl)-1H-pyrazolo[4,3-b]pyridine], the pEC50 in test [1] is 5.49; with SW480 colon cancer cells, less than 5.00; in test [2], 5.56. Besides, the inhibition at 10 µM in the test on SW480 colon cancer cells is 18%.

As for `Oc1cncc(-c2ccc3[nH]nc(-c4nc5c(-c6cccnc6)nccc5[nH]4)c3n2)c1` [Compound 565, 5-(3-(4-(Pyridin-3-yl)-1H-imidazo[4,5-c]pyridin-2-yl)-1H-pyrazolo[4,3-b]pyridin-5-yl)pyridin-3-ol], the pEC50 was 6.34 in test [1], less than 5.00 in the test with SW480 colon cancer cells and 6.10 in test [2]. Moreover, the inhibition at 10 µM in the test with SW480 colon cancer cells turned out to be 32.7%.

As to `c1cc(-c2nccc3[nH]c(-c4n[nH]c5ccc(-c6cncc(OC7CCNCC7)c6)nc45)nc23)ccn1` [Compound 576, 5-(5-(Piperidin-4-yloxy)pyridin-3-yl)-3-(4-(pyridin-4-yl)-1H-imidazo[4,5-c]pyridin-2-yl)-1H-pyrazolo[4,3-b]pyridine], the pEC50 is less than 5.00 in test [1], less than 5.00 with SW480 colon cancer cells and 5.62 in test [2]. For the same compound, the figures for the inhibition at 10 µM (in test [1]; in the test with SW480 colon cancer cells) were 17.9% and 24.6%, respectively.

`c1ccc(COc2cncc(-c3ccc4[nH]nc(-c5nc6c(-c7ccncc7)nccc6[nH]5)c4n3)c2)cc1` [Compound 582, 5-(5-(Benzyloxy)pyridin-3-yl)-3-(4-(pyridin-4-yl)-1H-imidazo[4,5-c]pyridin-2-yl)-1H-pyrazolo[4,3-b]pyridine]: the pEC50 (in test [1]; in the test on SW480 colon cancer cells; in test [2]) was less than 5.00 throughout. For the same compound, the inhibition at 10 µM in test [1] came out at 18.1%; in the test on SW480 colon cancer cells it was 10.9%; in test [2], 0%.

For the compound `c1cc(-c2nccc3[nH]c(-c4n[nH]c5ccc(-c6cnccn6)nc45)nc23)ccn1` [Compound 584, 5-(Pyrazin-2-yl)-3-(4-(pyridin-4-yl)-1H-imidazo[4,5-c]pyridin-2-yl)-1H-pyrazolo[4,3-b]pyridine], the pEC50 (in test [1]; in the test with SW480 colon cancer cells; in test [2]) was less than 5.00 throughout. Further, the inhibition at 10 µM in test [1] stood at 5.7%; with SW480 colon cancer cells it was 2.1%; in test [2], 0%.

For `O=C(CC1CCNCC1)Nc1cncc(-c2ccc3[nH]nc(-c4nc5c(-c6ccccn6)nccc5[nH]4)c3n2)c1` [Compound 593, 2-(Piperidin-4-yl)-N-(5-(3-(4-(pyri-2-yl)-1H-imidazo[4,5-c]pyridin-2-yl)-1H-pyrazolo[4,3-b]pyridin-5-yl)pyridin-3-yl)acetamide], the pEC50 is less than 5.00 in test [1], less than 5.00 in the test on SW480 colon cancer cells and 5.81 in test [2]. The figures for the inhibition at 10 µM (in test [1]; in the test on SW480 colon cancer cells) were 31.4% and 9.1%, respectively.

For the compound `c1cc2[nH]c(-c3n[nH]c4ccc(-c5cncc(OCCN6CCCC6)c5)nc34)nc2c(N2CCCCC2)n1` [Compound 610, 3-(4-(Piperidin-1-yl)-1H-imidazo[4,5-c]pyridin-2-yl)-5-(5-(2-(pyrrolidin-1-yl)ethoxy)pyridin-3-yl)-1H-pyrazolo[4,3-b]pyridine], the pEC50 in test [1] is less than 5.00; in the test on SW480 colon cancer cells, 5.01; in test [2], less than 5.00. The inhibition at 10 µM in test [1] turned out to be 46.2%; in test [2], 0%.
